Reference: US20040131574A1, “Method and composition for the control of hair growth” (priority 2001, published 2004)

Tests used:
Type in all cases: in vivo
[1] = test system: hair regrowth; test: hair regrowth after shaving in dogs treated s.c. for 20 days; details: s.c. 4.3 mg/kg/d for 20 days, shaved 5 days post-drug, observed approximately 8 weeks post-drug
Procedure: Two dogs were treated with (R,R)—(HO)2DEHSPM (dihydroxydiethylhomospermine) s.c. at a dose of 4.3 mg/kg/d for 20 days. The dogs were Holter-Monitored once weekly for evidence of cardiac rhythm disturbances. A post-drug Holter monitoring was performed 5 days post-drug and hair was shaved at that time to allow for the placing of the leads.

[2] = test system: hair regrowth; test: hair regrowth after shaving in dogs treated s.c. twice daily for 13 days, versus saline control dog; details: total daily dose 4-3 mg/kg; for relative order of hair regrowth: approximately 6 weeks post-drug; for hair regrowth compared with control dog: shaved 3 days post-drug, observed approximately 6 weeks post-drug
Procedure: Several dogs were treated with (R,R) or (S,S)—(HO)2DEHSPM s.c. twice daily for 13 days. The total daily dose was 4-3 mg/kg. One additional dog served as a saline-treated control animal. All of the dogs were Holter monitored once weekly for evidence of cardiac rhythm disturbances. A post-drug Holter monitoring was performed 3 days post-drug and hair was shaved at that time to allow for the placing of the leads.

[3] = test system: hair growth in the shaved area; test: hair re-growth in partially shaven mice; details: C57/B16 mice
Procedure: Fourteen C57/B16 mice were partially shaven; one was maintained as a control and to the remainder was administered diethyl-homospermine [10 mg/kg-0.01% solution (Bid)], six times daily over 9 days.
The above test (Example 1) was repeated except that the dosage of polyamine was 7.5 mg/kg.

SMILES: CCNC[C@H](O)CCNCCCCNCC[C@@H](O)CNCC [(R,R)—(HO)2DEHSPM, (R,R)-dihydroxydiethylhomospermine]
- hair regrowth at shaved Holter lead sites [1]: hair from the last Holter monitoring had not grown back
- relative order of hair regrowth [2]: control dog >(S,S)—(HO)2DEHSPM dogs>(R,R)—HO2DEHSPM dogs
- hair regrowth compared with control dog [2]: this was not the case with the treated animals

SMILES: CCNC[C@@H](O)CCNCCCCNCC[C@H](O)CNCC [(S,S)—(HO)2DEHSPM, (S,S)-dihydroxydiethylhomospermine]
- relative order of hair regrowth [2]: control dog >(S,S)—(HO)2DEHSPM dogs>(R,R)—HO2DEHSPM dogs
- hair regrowth compared with control dog [2]: this was not the case with the treated animals

SMILES: CCNCCCCNCCCCNCCCCNCC [diethyl-homospermine, N,N′-diethylhomospermine]
- resumption of normal hair growth in the shaved area ([3]; 10 mg/kg-0.01% solution (Bid), six times daily over 9 days): The control resumed normal hair growth immediately in the shaved area, unlike the remainder of the mice in the test
- normal hair re-growth in the shaved areas ([3]; dosage 7.5 mg/kg, otherwise as Example 1): the mice treated with the polyamine did not
